Test results from PubChem BioAssay (NCI).
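Results reflect a 48-hour exposure of cells in 96-well plates to compound at five concentrations. TGI: total growth inhibition.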

Assays:
Test in all cases: NCI-60 cell line screen, 48 h
M14 melanoma = tested on: M14 melanoma
UACC-62 melanoma = tested on: UACC-62 melanoma
SK-MEL-5 melanoma = tested on: SK-MEL-5 melanoma
SR leukemia = tested on: SR leukemia
U251 CNS = tested on: U251 CNS
EKVX NSCLC = tested on: EKVX NSCLC
OVCAR-3 ovarian = tested on: OVCAR-3 ovarian
SNB-19 CNS = tested on: SNB-19 CNS
NCI-H460 lung = tested on: NCI-H460 lung
UO-31 renal = tested on: UO-31 renal
HT29 colon = tested on: HT29 colon
NCI-H23 lung = tested on: NCI-H23 lung
DMS 273 small cell lung = tested on: DMS 273 small cell lung
LXFL 529 NSCLC = tested on: LXFL 529 NSCLC
786-0 renal = tested on: 786-0 renal
CAKI-1 renal = tested on: CAKI-1 renal
DLD-1 colon = tested on: DLD-1 colon
NCI-H522 lung = tested on: NCI-H522 lung
MOLT-4 leukemia = tested on: MOLT-4 leukemia
RXF 393 renal = tested on: RXF 393 renal
OVCAR-4 ovarian = tested on: OVCAR-4 ovarian
SNB-75 CNS = tested on: SNB-75 CNS
SK-MEL-28 melanoma = tested on: SK-MEL-28 melanoma
SK-MEL-2 melanoma = tested on: SK-MEL-2 melanoma
HOP-62 NSCLC = tested on: HOP-62 NSCLC
A549 NSCLC = tested on: A549 NSCLC
HCT-116 colon = tested on: HCT-116 colon
OVCAR-8 ovarian = tested on: OVCAR-8 ovarian
K-562 leukemia = tested on: K-562 leukemia
HOP-92 NSCLC = tested on: HOP-92 NSCLC
A498 renal = tested on: A498 renal
SF-295 CNS = tested on: SF-295 CNS
XF 498 CNS = tested on: XF 498 CNS
SW-620 colon = tested on: SW-620 colon
DMS 114 small cell lung = tested on: DMS 114 small cell lung
KM20L2 colon = tested on: KM20L2 colon
OVCAR-5 ovarian = tested on: OVCAR-5 ovarian
SF-268 CNS = tested on: SF-268 CNS
KM12 colon = tested on: KM12 colon
HCT-15 colon = tested on: HCT-15 colon
RXF-631 renal = tested on: RXF-631 renal
RPMI-8226 leukemia = tested on: RPMI-8226 leukemia
IGROV1 ovarian = tested on: IGROV1 ovarian
NCI-H226 lung = tested on: NCI-H226 lung
COLO 205 colon = tested on: COLO 205 colon
MALME-3M melanoma = tested on: MALME-3M melanoma
SF-539 CNS = tested on: SF-539 CNS
SK-OV-3 ovarian = tested on: SK-OV-3 ovarian
CCRF-CEM leukemia = tested on: CCRF-CEM leukemia
SN12C renal = tested on: SN12C renal
HL-60(TB) leukemia = tested on: HL-60(TB) leukemia
HCC-2998 colon = tested on: HCC-2998 colon
ACHN renal = tested on: ACHN renal
M19-MEL melanoma = tested on: M19-MEL melanoma
SNB-78 CNS = tested on: SNB-78 CNS
LOX IMVI melanoma = tested on: LOX IMVI melanoma
UACC-257 melanoma = tested on: UACC-257 melanoma
HOP-18 NSCLC = tested on: HOP-18 NSCLC
TK-10 renal = tested on: TK-10 renal

In the case of `N#Cc1cccnc1Cl`, the TGI (M14 melanoma) is reported as over 100 µM, the TGI (UACC-62 melanoma) is reported as over 100 µM and the TGI (SK-MEL-5 melanoma) is reported as over 100 µM. The TGI (SR leukemia) was over 100 µM, the TGI (U251 CNS) was over 100 µM and the TGI (EKVX NSCLC) was over 100 µM. It also gave a TGI (OVCAR-3 ovarian) of over 100 µM, a TGI (SNB-19 CNS) of over 100 µM and a TGI (NCI-H460 lung) of over 100 µM. The TGI (UO-31 renal) was over 100 µM, the TGI (HT29 colon) was over 100 µM and the TGI (NCI-H23 lung) was over 100 µM. It also gave a TGI (DMS 273 small cell lung) of over 100 µM, a TGI (LXFL 529 NSCLC) of over 100 µM and a TGI (786-0 renal) of over 100 µM. The TGI (CAKI-1 renal) was over 100 µM, the TGI (DLD-1 colon) was over 100 µM and the TGI (NCI-H522 lung) was over 100 µM. For the same compound, the TGI (MOLT-4 leukemia) was over 100 µM, the TGI (RXF 393 renal) was over 100 µM and the TGI (OVCAR-4 ovarian) was over 100 µM. For the same compound, the TGI (SNB-75 CNS) was over 100 µM, the TGI (SK-MEL-28 melanoma) was over 100 µM and the TGI (SK-MEL-2 melanoma) was over 100 µM. It also gave a TGI (HOP-62 NSCLC) of over 31.6 µM, a TGI (A549 NSCLC) of over 100 µM and a TGI (HCT-116 colon) of over 100 µM. It also gave a TGI (OVCAR-8 ovarian) of over 100 µM, a TGI (K-562 leukemia) of over 100 µM and a TGI (HOP-92 NSCLC) of over 100 µM. For the same compound, the TGI (A498 renal) was over 100 µM, the TGI (SF-295 CNS) was over 100 µM and the TGI (XF 498 CNS) was over 100 µM. For the same compound, the TGI (SW-620 colon) was over 100 µM, the TGI (DMS 114 small cell lung) was over 100 µM and the TGI (KM20L2 colon) was over 100 µM. It also gave a TGI (OVCAR-5 ovarian) of over 100 µM, a TGI (SF-268 CNS) of over 100 µM and a TGI (KM12 colon) of over 100 µM. The TGI (HCT-15 colon) was over 100 µM, the TGI (RXF-631 renal) was over 100 µM and the TGI (RPMI-8226 leukemia) was over 100 µM. It also gave a TGI (IGROV1 ovarian) of over 100 µM, a TGI (NCI-H226 lung) of over 100 µM and a TGI (COLO 205 colon) of over 100 µM. For the same compound, the TGI (MALME-3M melanoma) was over 100 µM, the TGI (SF-539 CNS) was over 100 µM and the TGI (SK-OV-3 ovarian) was over 100 µM. It also gave a TGI (CCRF-CEM leukemia) of over 100 µM, a TGI (SN12C renal) of over 100 µM and a TGI (HL-60(TB) leukemia) of over 100 µM. The TGI (HCC-2998 colon) was over 100 µM, the TGI (ACHN renal) was over 100 µM and the TGI (M19-MEL melanoma) was over 100 µM. It also gave a TGI (SNB-78 CNS) of over 100 µM, a TGI (LOX IMVI melanoma) of over 100 µM and a TGI (UACC-257 melanoma) of over 100 µM. The TGI (HOP-18 NSCLC) was over 100 µM and the TGI (TK-10 renal) was over 100 µM.
